In patent US9205130B2, “Orally administrable pharmaceutical pellet of epidermal growth factor” (CENTRO DE INGENIERIA GENETICA Y BIOTECNOLOGIA, priority 2010, dated 2015):

Test system: 3T3 A31 cells
Assay: Biological activity: induction of proliferation of 3T3 A31 cells, crystal violet
Format: cell-based, mouse
Conditions: before being formulated in form of capsule
Method: The activity of epidermal growth factor in capsules of example 1 packaged in blisters and stored at temperatures of 5±3° C. were tested. This biological test is based on the capacity of the epidermal growth factor human recombinant (EGF Hu-r) to induce the proliferation of cell lines of mouse embryos of 3T3/A3 which are extremely sensitive to contact inhibition cell division.
For determining the capability of induction of cell proliferation of EGF and its duration, the method comprises the quantification of the absorption of colorant crystal violet by the living cells 3T3 A31.
The preparation of samples of EGF comprises the addition of 100 ml of phosphate saline buffer (PBS1×) to the content of 10 capsules of Example 1, maintaining agitation for 15 minutes. The resultant suspension was centrifuged for 5 minutes at 9000 rpm and the aqueous solution was collected.
Cells 3T3 A31 in 96-plates at a concentration of 1.5×10^5 cells/mL were sown. These plates were incubated at 37° C., 5% CO2 and 95% humidity for 24 hours.
After completing the incubation time, cells were washed twice with 100 μl of PBS1× and then 100 μl of DMEM 1× without fetal bovine serum (SFB) was added to the medium and plates were incubated at 37° C., 5% CO2 and 95% humidity for another 24 hours. […]

Substance: epidermal growth factor [epidermal growth factor human recombinant, before being formulated in form of capsule]
- Reference biological activity of EGF: 2×10^6 UI/mg
